Experimental data reported in patent US8551937B2, “Peptide having an extending action for half-life of object peptide in plasma” (priority 2008, dated 2013).

Columns and labels:
[1] = CNP immunoreactivity concentration in plasma after administration to rats (competitive RIA), pharmacokinetic parameters (Example 2); format: in vivo, rat; conditions: for half-life: read-out: T½
Description: Pharmacokinetic parameters were calculated from the resulting changes in immunoreactivity concentrations in plasma. At that time, WinNonlin Professional Ver. 4.0.1 (manufactured by Pharsight Corporation, U.S.A.) was used as the analytical software. Method for the calculation of each parameter is mentioned as follows.
Concentration at time 0 (C0; extrapolated value, ng/mL), area under the curve for concentration in plasma vs. time (AUC; ng.min/mL) and quenching half-life (T½; minute(s)) were calculated as follows. C0 was calculated as a value at time by means of extrapolation from the changes in immunoreactivity concentration in plasma at each blood collection period. AUC was calculated by a trapezoidal method using the immunoreactivity concentrations in plasma at all measuring points (t) and an extrapolated value until the infinitive time was determined. T½ was calculated by means of a least-squares method from the inclination of a straight line connecting several points in a disappearing phase of the immunoreactivity concentration in plasma. In the case of a subcutaneous administration, C0 was not determined but the maximum concentration in plasma (Cmax; ng/mL) and the time reaching the maximum concentration in plasma (Tmax; min) were determined.
Changes in CNP immunoreactivity concentration in plasma of native CNP-22 and chimeric peptide (chimeric CNP) where a half-life-extension peptide was added to CNP were investigated.
The experiment was conducted in the same manner as in Example 1 that rats where polyethylene tube was previously inserted into thigh artery were used under an anesthetizing condition with Nembutal and male SD strain rats of 7 weeks age (purchased from Nippon Charles River) were used where one group comprised 3 rats. […] At that time, a rabbit polyclonal antibody (#2) recognizing a ring part of native CNP-22 was used as an antibody and ^125I-[Tyr^0] CNP was used as a labeling compound. Pharmacokinetic analysis was carried out by the same method as in Example 1.

[2] = CNP immunoreactivity concentration in plasma, half-life after intravenous administration (Example 7); conditions: male, SD, rat, in vivo, 10 nmol/kg
Description: The experiment was carried out using rats into which polyethylene tube (PE-50 manufactured by Clay Adams) was previously inserted into thigh artery under an anesthetized condition with Nembutal. As to a test system, male SD strain rats (Nippon Charles River) of 7 weeks age were used where one group comprised 3 rats. Native CNP-22 or chimeric CNP in a dose of 10 nmol/kg was administered into tail vein of the rat and the blood before the administration and until 60 minutes after the administration was collected by a polyethylene tube inserted into the thigh artery. To the collected blood were added EDTA (manufactured by Dojin Laboratories) and aprotinin (manufactured by Bayer) as a stabilizer and an anti-coagulant, respectively and the plasma was separated therefrom by centrifugal separation. CNP immunoreactivity concentration in plasma was measured by a competitive radioimmunoassay (RIA). At that time, a rabbit polyclonal antibody (#2) which specifically recognizes the ring partial structure of the native CNP-22 was used as an antibody and, as a labeled compound, ^125I-[Tyr^0] CNP was used.

[3] = Comparison of half-life in plasma of native CNP-22, native CNP-53 and chimeric CNP (Example 12); conditions: male, SD, rat, in vivo, iv, 20 nmol/kg, T½ Mean Value, intravenous, male rats, N = 3
Description: Changes in CNP immunoreactivity concentration in plasma when the native CNP-22 shown by SEQ ID No: 101 was administered either solely or jointly with neutral endo-peptidase (NEP) inhibitor and compared with changes in CNP immunoreactivity concentration in plasma when native CNP-53 (SEQ ID No: 159) and the chimeric CNP (D) (structure mentioned already) were intravenously administered.
The experiment was conducted using rats where polyethylene tube (PE-50, manufactured by Clay Adams) was previously inserted into thigh artery under the anesthetized condition with Nembutal. In the group where the native CNP-22 was administered either solely or jointly with an NEP inhibitor, the polyethylene tube (PE-10, manufactured by Clay Adams) was also inserted into the thigh vein. As to a test system, male SD rats (Nippon Charles River) of 7 weeks age were used where one group comprised three rats. As to the NEP inhibitor, DL-Thiorphan (manufactured by Sigma) was used and, during the period from 10 minutes before the initiation of administration of the native CNP-22 until 60 minutes after the initiation of the administration where collection of the blood finished, 5% mannitol (100 μL/min/body) or NEP inhibitor (30 μg/100 μL/min/body) was subjected to a constant-speed intravenous administration for 70 minutes using an Infusion Pump (CFV 2100, manufactured by Nippon Koden K. K.). Native CNP-22, native CNP-53 or chimeric CNP (D) was administered into tail vein in a dose of 20 nmol/kg each and blood over the time from before administration and 60 minutes after administration was collected from a polyethylene tube inserted into the thigh artery. To the collected blood were added EDTA (Dojin Laboratories) and aprotinin (manufactured by Bayer) as a stabilizer and an anti-coagulant, respectively and the plasma was separated by means of centrifugal separation. CNP immunoreactivity concentration in the plasma was measured by a competitive radioimmunoassay (RIA). At that time, a rabbit polyclonal antibody (#2) which specifically recognizes a ring part structure which is the common structure for native CNP-22 and native CNP-53 was used as an antibody while, as a labeling compound, ^125I-[Tyr^0] CNP-22 was used.

[4] = CNP immunoreactivity concentration in plasma, half-life after intravenous administration (Example 9); conditions: male, SD, rat, in vivo, 20 nmol/kg
[5] = rat, plasma, sc, subcutaneous, 0.1 mg/kg, male rats, N = 3, mean ± SD
[6] = rat, plasma, intravenous, 0.1 mg/kg, male rats, N = 3, mean ± SD

CC[C@H](C)[C@@H]1NC(=O)[C@H](CCCNC(=N)N)NC(=O)[C@H](CC(=O)O)NC(=O)[C@H](CC(C)C)NC(=O)[C@H](CCCCN)NC(=O)[C@H](CC(C)C)NC(=O)CNC(=O)[C@H](Cc2ccccc2)NC(=O)[C@@H](NC(=O)CNC(=O)[C@H](CCCCN)NC(=O)[C@H](CO)NC(=O)[C@H](CC(C)C)NC(=O)CN)CSSC[C@@H](C(=O)O)NC(=O)CNC(=O)[C@H](CC(C)C)NC(=O)CNC(=O)[C@H](CO)NC(=O)[C@H](CCSC)NC(=O)[C@H](CO)NC(=O)CNC1=O [Native CNP-22]
AUC(0-inf) [1, 5]: 17.7 ng·h/mL | Cmax [1, 5]: 55.6 ± 4.5 ng/mL | Tmax [1, 5]: 5 min | half-life [1, 5]: 7.8 ± 0.9 min | AUC(0-inf) [1, 6]: 25.6 ng·h/mL | C0 ([1]; rat, plasma, intravenous, 0.1 mg/kg, male rats, N = 3, mean ± SD, extrapolated value): 1020 ± 273 ng/mL | half-life [1, 6]: 2.93 ± 0.23 min | CNP immunoreactivity concentration in plasma ([1]; subcutaneous, after 60 minutes from the administration): almost disappeared | half-life [2]: 4.34 min | half-life ([3]; Joint Use with NEP Inhibitor: no): 1.11 min | half-life ([3]; Joint Use with NEP Inhibitor: yes (DL-Thiorphan)): 16.2 min | half-life [4]: 1.6 min
